{"source": "patent US4271193A", "about": "“N1-Benzoyl-N2-phenyldiaminopropanols and pharmaceutical compositions thereof, and processes for their preparation” (Kali-Chemie Pharma GmbH, priority 1978, dated 1981)", "key": {"[1]": {"assay": "Acute 7-day toxicity after single application per os", "settings": "mouse, in vivo, po, white NMRI-mice, not fed", "procedure": "The acute 7-day toxicity is determined after a single application per os in white NMRI-mice which had not been fed. The calculation of the LD50 is carried out by probitananalysis by means of electronic data processing (see L. Cavalli-Sforza, Gustav Fischer-Verlag, Stuttgart (1964), Grundbegriffe der Biometrie, p. 153)."}, "[2]": {"tested_on": "stomach epithelium cells", "assay": "Inhibition of acetylsalicylic acid-induced loss of stomach epithelium cells", "format": "in vivo", "settings": "Rattus norvegicus; narcotized male SIV50 rats; acetylsalicylic acid as irritant; 3 times 300 mg/kg test compound orally beforehand; read-out: % reduction of loss of epithelium cells in the stomach", "procedure": "2. Inhibition of loss of stomach epithelium cells\nThe test compound is orally administered to narcotized male rats of the breed SIV50 prior to the beginning of the test. […] In order to determine the induced total loss of cells in the rats stomach, acetylsalicylic acid is administered to animals without prior administration of a protective compound.\nIn order to prepare the animals for the determination, the trachea is laid free and a tube introduced therein. Subsequently, a laparotomy in the medial part, displacement of the stomach and introducing and fixing of a vein-catheter for recovering stomach juices are effected. By means of the introduced vein-catheter, stomach juice is recovered and then is centrifuged and microscopically analyzed.\nThe percent reduction of loss of cells induced by the acetylsalicylic acid after previous administration of 3 times 300 mg/kg of the test compound is determined."}}}
{"smiles": "COc1cc(C(=O)NCC(O)CN(C)c2ccc(F)cc2)cc(OC)c1OC", "note": "(stereo not drawn) [A]", "values": [{"measurement": "LD50 at 168 h", "setting": "[1]", "result": 5010, "unit": "mg/kg"}, {"measurement": "inhibition in vivo at 300 mg/kg", "setting": "[2]", "result": 53, "unit": "%"}]}
{"smiles": "COc1cc(C(=O)NCC(O)CN(C)c2ccc(Cl)cc2)cc(OC)c1OC", "note": "(stereo not drawn) [B]", "values": [{"measurement": "LD50 at 168 h", "setting": "[1]", "result": "> 5000", "unit": "mg/kg"}, {"measurement": "inhibition in vivo at 300 mg/kg", "setting": "[2]", "result": 77, "unit": "%"}]}
{"smiles": "COc1cc(C(=O)NCC(O)CN(C)c2ccc(C(F)(F)F)cc2)cc(OC)c1OC", "note": "(stereo not drawn) [C]", "values": [{"measurement": "LD50 at 168 h", "setting": "[1]", "result": "> 1390", "unit": "mg/kg"}, {"measurement": "inhibition in vivo at 300 mg/kg", "setting": "[2]", "result": 47.8, "unit": "%"}]}
{"smiles": "COc1cc(C(=O)NCC(O)CN(C)c2ccc(C)cc2)cc(OC)c1OC", "note": "(stereo not drawn) [D]", "values": [{"measurement": "LD50 at 168 h", "setting": "[1]", "result": "> 3160", "unit": "mg/kg"}, {"measurement": "inhibition in vivo at 300 mg/kg", "setting": "[2]", "result": 47.8, "unit": "%"}]}
{"smiles": "CCN(CC(O)CNC(=O)c1cc(OC)c(OC)c(OC)c1)c1ccc(F)cc1", "note": "(stereo not drawn) [E]", "values": [{"measurement": "LD50 at 168 h", "setting": "[1]", "result": "> 1280", "unit": "mg/kg"}, {"measurement": "inhibition in vivo at 300 mg/kg", "setting": "[2]", "result": 43, "unit": "%"}]}
{"smiles": "COc1cc(C(=O)NCC(O)CNc2c(C)cc(C)cc2C)cc(OC)c1OC", "note": "(stereo not drawn) [F]", "values": [{"measurement": "LD50 at 168 h", "setting": "[1]", "result": "> 1270", "unit": "mg/kg"}, {"measurement": "inhibition in vivo at 300 mg/kg", "setting": "[2]", "result": 28.4, "unit": "%"}]}
{"smiles": "CCOc1cc(C(=O)NCC(O)CN(C)c2ccc(F)cc2)cc(OCC)c1OCC", "note": "(stereo not drawn) [G]", "values": [{"measurement": "LD50 at 168 h", "setting": "[1]", "result": "> 1370", "unit": "mg/kg"}, {"measurement": "inhibition in vivo at 300 mg/kg", "setting": "[2]", "result": 63, "unit": "%"}]}
{"smiles": "COc1ccc(C(=O)NCC(O)CN(C)c2ccc(F)cc2)c2c1OCCO2", "note": "(stereo not drawn) [H]", "values": [{"measurement": "LD50 at 168 h", "setting": "[1]", "result": "> 1230", "unit": "mg/kg"}, {"measurement": "inhibition in vivo at 300 mg/kg", "setting": "[2]", "result": 48.6, "unit": "%"}]}
{"smiles": "CCCCOc1c(OC)cc(C(=O)NCC(O)CN(C)c2ccc(F)cc2)cc1OC", "note": "(stereo not drawn) [I]", "values": [{"measurement": "LD50 at 168 h", "setting": "[1]", "result": "> 1370", "unit": "mg/kg"}, {"measurement": "inhibition in vivo at 300 mg/kg", "setting": "[2]", "result": 27.2, "unit": "%"}]}
